Source: the supplement of paper PMC5844555

How the values were obtained:
Test in all cases: 3' UTR reporter interaction score (median-centred robust z-score of log2 firefly/Renilla activity); higher = less repression of the 3' UTR reporter
Details in all cases: HEK293T; 48 h
PHF6 = test system: PHF6
Summary of the method: (§1)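 Firefly and Renilla luciferase activities were read 48 h post-transfection in HEK293T cells (10,000/well, 96-well plates). The cells had received 100 ng firefly luc2P reporter bearing the gene's 3' UTR, 20 ng Renilla pRL-TK control and 2.5 pmol miRNA mimic via DharmaFECT Duo. The interaction score, where more negative means interaction, is a per-plate robust z-score (median, median absolute deviation) of the log firefly/Renilla ratio, median-centred per miRNA and averaged over at least two independent screens.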

NOTCH1 = test system: NOTCH1
Summary of the method: as §1

PHOX2B = test system: PHOX2B
Summary of the method: as §1

MYB = test system: MYB
Summary of the method: as §1

BRCA2 = test system: BRCA2
Summary of the method: as §1

TP53 = test system: TP53
Summary of the method: as §1

MYC = test system: MYC
Summary of the method: as §1

RB1 = test system: RB1
Summary of the method: as §1

MYCN = test system: MYCN
Summary of the method: as §1

FBXW7 = test system: FBXW7
Summary of the method: as §1

MYT1L = test system: MYT1L
Summary of the method: as §1

HRAS = test system: HRAS
Summary of the method: as §1

ZEB2 = test system: ZEB2
Summary of the method: as §1

EZH2 = test system: EZH2
Summary of the method: as §1

| Sequence | 3' UTR reporter interaction score (PHF6) | 3' UTR reporter interaction score (NOTCH1) | 3' UTR reporter interaction score (PHOX2B) | 3' UTR reporter interaction score (MYB) | 3' UTR reporter interaction score (BRCA2) | 3' UTR reporter interaction score (TP53) | 3' UTR reporter interaction score (MYC) | 3' UTR reporter interaction score (RB1) | 3' UTR reporter interaction score (MYCN) | 3' UTR reporter interaction score (FBXW7) | 3' UTR reporter interaction score (MYT1L) | 3' UTR reporter interaction score (HRAS) | 3' UTR reporter interaction score (ZEB2) | 3' UTR reporter interaction score (EZH2) |
| --- | --- | --- | --- | --- | --- | --- | --- | --- | --- | --- | --- | --- | --- | --- |
| AAAACGGUGAGAUUUUGUUUU | -0.604 | -1.23 | 1.39 | 0.737 | -0.776 | -0.39 | 0.0587 | -1.03 | 0.148 | 0.403 | -0.225 | -0.201 | 0.0197 | – |
| AAACCGUUACCAUUACUGAGUUU | 0.358 | -0.371 | -1.13 | – | 0.378 | 0.812 | -0.972 | -0.236 | -0.445 | -0.543 | 1.68 | -0.683 | 0.377 | 0.71 |
| AAAGUGCUGUUCGUGCAGGUAG | 0.684 | 0.83 | 1.63 | -1.38 | -0.619 | 0.803 | -0.0736 | 0.0538 | -0.359 | 0.872 | -1.47 | -0.586 | -0.0741 | – |
| AAAGUGCUUCCUUUUAGAGGC | -0.00693 | – | 0.798 | -0.24 | -0.921 | 0.32 | -0.277 | 0.31 | 0.692 | 0.555 | -0.527 | -0.194 | 0.738 | -0.74 |
| AAAGUGCUUCUCUUUGGUGGGUU | -0.0534 | 0.392 | 1.31 | -0.782 | 0.0116 | 0.499 | -0.26 | 0.799 | – | 0.685 | -0.567 | 0.266 | 0.955 | -1.56 |
| AACAUUCAUUGCUGUCGGUGGG | 0.159 | -0.249 | 1.46 | 0.0638 | 0.08 | 0.443 | 0.124 | 0.0638 | – | 0.243 | -0.567 | -0.854 | 0.114 | 0.0847 |
| AAUAUAACACAGAUGGCCUGU | – | 0.989 | 0.795 | -0.573 | -0.646 | 0.139 | 0.886 | -1.07 | – | 0.647 | -0.827 | 0.155 | -0.625 | 0.634 |
| AAUUGCACGGUAUCCAUCUGUA | 0.891 | -0.751 | -1.97 | 0.44 | 0.52 | -1.12 | 1.4 | 1.19 | 0.653 | -6.72 | – | 0.777 | -3.51 | -0.862 |
| ACUUUAACAUGGAAGUGCUUUCU | -0.0712 | -0.363 | -0.178 | -0.31 | 0.253 | 0.121 | 0.48 | – | -0.0564 | – | 0.13 | -0.0142 | -0.795 | 0.735 |
| AGAUCAGAAGGUGAUUGUGGCU | 1.45 | 0.74 | -0.105 | -2.02 | 0.117 | 0.622 | -0.231 | -1 | -0.0131 | 1.15 | – | 0.462 | -0.441 | 0.782 |
| AGGCACCAGCCAGGCAUUGCUCAGC | 0.574 | -0.1 | -2.66 | 0.348 | – | 0.444 | -0.313 | 0.342 | -0.343 | -2.35 | 0.327 | -0.411 | -0.849 | 1 |
| AUGUAUAAAUGUAUACACAC | -0.348 | -1.28 | 0.0154 | -0.578 | 0.174 | 1.38 | -0.0623 | -0.33 | -0.0355 | 0.329 | – | 0.0947 | -1.04 | 0.905 |
| CAAAAACCACAGUUUCUUUUGC | 0.268 | -0.821 | 0.417 | -1.54 | – | -0.323 | 0.0969 | 0.189 | 0.186 | -0.0284 | -0.79 | -1.1 | -0.847 | 0.177 |
| CAAGAACCUCAGUUGCUUUUGU | -0.741 | -0.974 | -0.954 | 0.335 | -0.995 | 0.405 | 0.13 | – | – | -0.0454 | -0.132 | 1.03 | -1.03 | 0.928 |
| CACGCUCAUGCACACACCCAC | -3.04 | 0.398 | -1.58 | – | 0.0228 | 1.21 | 0.38 | -0.279 | -0.371 | -1.61 | 0.0877 | – | 1.26 | 0.315 |
| CAGUGCAAUAGUAUUGUCAAAGC | 1.54 | 1.2 | -0.134 | -1.09 | 0.327 | -0.369 | -0.162 | 1.9 | 0.282 | 0.383 | -1.35 | – | -0.0807 | -0.946 |
| CAUUAUUACUUUUGGUACGCG | -0.223 | -0.00418 | 0.437 | 0.454 | -0.00235 | 0.0619 | -0.4 | 0.974 | – | 0.0986 | -0.409 | 0.225 | 0.0582 | 0.119 |
| CUCCUGACUCCAGGUCCUGUGU | -4.57 | 0.232 | -0.0385 | 0.427 | 0.612 | 0.342 | 1.1 | 0.546 | -0.0476 | -0.332 | – | 0.32 | -1.51 | -0.51 |
| GGCAGGUUCUCACCCUCUCUAGG | -0.606 | 0.309 | -1.4 | – | -0.0484 | -0.0357 | 0.583 | – | 0.446 | -1.49 | -0.84 | 0.517 | -0.268 | 0.162 |
| GGCUAGCAACAGCGCUUACCU | -0.414 | -0.508 | 0.192 | -0.249 | -0.392 | 0.432 | -0.989 | 0.235 | 0.326 | 0.164 | 0.317 | -0.311 | 0.537 | – |
| GGUCCAGAGGGGAGAUAGG | 0.39 | 0.349 | -0.69 | -0.834 | -0.441 | 0.186 | -0.219 | -0.274 | -0.926 | -0.103 | 0.466 | – | -0.0605 | -0.024 |
